Measured values: ChEMBL document CHEMBL3885881, “DrugMatrix”

Organism: Rattus norvegicus
Assay: DrugMatrix - Regimen: Daily Repeat
Type: toxicity, organism-based, Sprague-Dawley
Set-up: regimen Daily Repeat, gender Male, age 6-8 weeks
Conditions: in vivo, po, route oral GAVAGE, vehicle 100 % WATER; for ABSOLUTE BASOPHIL / ABSOLUTE EOSINOPHIL / ABSOLUTE LYMPHOCYTE / ABSOLUTE MONOCYTE / ABSOLUTE SEGMENTED NEUTROPHIL / BASOPHIL / EOSINOPHIL / ERYTHROCYTE COUNT / HEMATOCRIT / HEMOGLOBIN / LEUKOCYTE COUNT / LYMPHOCYTE / MEAN CORPUSCULAR HEMOGLOBIN / MEAN CORPUSCULAR HEMOGLOBIN CONCENTRATION / MEAN CORPUSCULAR VOLUME / MONOCYTE / NEUTROPHIL / NUCLEATED RED BLOOD CELLS / PLATELET COUNT: tissue Blood; for ALANINE AMINOTRANSFERASE / ALBUMIN / ALKALINE PHOSPHATASE / ASPARTATE AMINOTRANSFERASE / BLOOD UREA NITROGEN / CARBON DIOXIDE / CHLORIDE / CHOLESTEROL / CREATINE PHOSPHOKINASE / CREATININE / GLUCOSE / LACTATE DEHYDROGENASE / LIPASE / PHOSPHORUS / POTASSIUM / SODIUM / TOTAL BILIRUBIN / TOTAL PROTEIN / URIC ACID: tissue Plasma
[1] = 0 mg/kg, 72 h, dose level Control, time 3 day
[2] = 0 mg/kg, 120 h, dose level Control, time 5 day
[3] = 10 mg/kg, 72 h, dose level Low, time 3 day

CC(C)(C)NC[C@H](O)COc1nsnc1N1CCOCC1 [TIMOLOL]
ABSOLUTE BASOPHIL [1]: 0 CELLS/uL | ABSOLUTE EOSINOPHIL [1]: 0 CELLS/uL | ABSOLUTE LYMPHOCYTE [1]: 8482.5 CELLS/uL | ABSOLUTE MONOCYTE [1]: 63.83 CELLS/uL | ABSOLUTE SEGMENTED NEUTROPHIL [1]: 887 CELLS/uL | BASOPHIL [1]: 0% | EOSINOPHIL [1]: 0% | ERYTHROCYTE COUNT [1]: 5.49 x10E6/uL | HEMATOCRIT [1]: 34.5% | HEMOGLOBIN [1]: 13.33 G/DL | LEUKOCYTE COUNT [1]: 9.43 x10E3/uL | LYMPHOCYTE [1]: 90.17% | MEAN CORPUSCULAR HEMOGLOBIN [1]: 24.3 pg | MEAN CORPUSCULAR HEMOGLOBIN CONCENTRATION [1]: 38.63 G/DL | MEAN CORPUSCULAR VOLUME [1]: 62.88 fL | MONOCYTE [1]: 0.67% | NEUTROPHIL [1]: 9.17% | NUCLEATED RED BLOOD CELLS [1]: 0.67 /100WBC | PLATELET COUNT [1]: 1022.83 x10E3/uL | ALANINE AMINOTRANSFERASE [1]: 50.5 u/L | ALBUMIN [1]: 4.08 G/DL | ALKALINE PHOSPHATASE [1]: 368.33 u/L | ASPARTATE AMINOTRANSFERASE [1]: 87.5 u/L | BLOOD UREA NITROGEN [1]: 12.83 mg/dL | CARBON DIOXIDE [1]: 32.83 mmol/L | CHLORIDE [1]: 99.67 MEQ/L | CHOLESTEROL [1]: 79.67 mg/dL | CREATINE PHOSPHOKINASE [1]: 585 u/L | CREATININE [1]: 0.22 mg/dL | GLUCOSE [1]: 135.67 mg/dL | LACTATE DEHYDROGENASE [1]: 171 u/L | LIPASE [1]: 9.5 u/L | PHOSPHORUS [1]: 11.18 mg/dL | POTASSIUM [1]: 6.25 MEQ/L | SODIUM [1]: 144.87 MEQ/L | TOTAL BILIRUBIN [1]: 0.2 mg/dL | TOTAL PROTEIN [1]: 6.08 G/DL | URIC ACID [1]: 0.65 mg/dL | ABSOLUTE BASOPHIL [2]: 0 CELLS/uL | ABSOLUTE EOSINOPHIL [2]: 14.5 CELLS/uL | ABSOLUTE LYMPHOCYTE [2]: 7596.17 CELLS/uL | ABSOLUTE MONOCYTE [2]: 69.67 CELLS/uL | ABSOLUTE SEGMENTED NEUTROPHIL [2]: 503 CELLS/uL | BASOPHIL [2]: 0% | EOSINOPHIL [2]: 0.17% | ERYTHROCYTE COUNT [2]: 5.49 x10E6/uL | HEMATOCRIT [2]: 34.72% | HEMOGLOBIN [2]: 13.47 G/DL | LEUKOCYTE COUNT [2]: 8.18 x10E3/uL | LYMPHOCYTE [2]: 92.17% | MEAN CORPUSCULAR HEMOGLOBIN [2]: 24.57 pg | MEAN CORPUSCULAR HEMOGLOBIN CONCENTRATION [2]: 38.82 G/DL | MEAN CORPUSCULAR VOLUME [2]: 63.3 fL | MONOCYTE [2]: 1% | NEUTROPHIL [2]: 6.67% | NUCLEATED RED BLOOD CELLS [2]: 0 /100WBC | PLATELET COUNT [2]: 1141 x10E3/uL | ALANINE AMINOTRANSFERASE [2]: 48.33 u/L | ALBUMIN [2]: 4.07 G/DL | ALKALINE PHOSPHATASE [2]: 395.67 u/L | ASPARTATE AMINOTRANSFERASE [2]: 85.67 u/L | BLOOD UREA NITROGEN [2]: 15.83 mg/dL | CARBON DIOXIDE [2]: 31.33 mmol/L | CHLORIDE [2]: 100.83 MEQ/L | CHOLESTEROL [2]: 62.33 mg/dL | CREATINE PHOSPHOKINASE [2]: 248.33 u/L | CREATININE [2]: 0.2 mg/dL | GLUCOSE [2]: 135.67 mg/dL | LACTATE DEHYDROGENASE [2]: 141.33 u/L | LIPASE [2]: 9.5 u/L | PHOSPHORUS [2]: 10.73 mg/dL | POTASSIUM [2]: 6.07 MEQ/L | SODIUM [2]: 145.35 MEQ/L | TOTAL BILIRUBIN [2]: 0.22 mg/dL | TOTAL PROTEIN [2]: 6.12 G/DL | URIC ACID [2]: 0.63 mg/dL | ABSOLUTE BASOPHIL [3]: 0 CELLS/uL | ABSOLUTE EOSINOPHIL [3]: 0 CELLS/uL | ABSOLUTE LYMPHOCYTE [3]: 11252 CELLS/uL | ABSOLUTE MONOCYTE [3]: 71.67 CELLS/uL | ABSOLUTE SEGMENTED NEUTROPHIL [3]: 843 CELLS/uL | BASOPHIL [3]: 0% | EOSINOPHIL [3]: 0% | ERYTHROCYTE COUNT [3]: 5.24 x10E6/uL | HEMATOCRIT [3]: 32.97% | HEMOGLOBIN [3]: 12.83 G/DL | LEUKOCYTE COUNT [3]: 12.17 x10E3/uL | LYMPHOCYTE [3]: 92.33% | MEAN CORPUSCULAR HEMOGLOBIN [3]: 24.5 pg | MEAN CORPUSCULAR HEMOGLOBIN CONCENTRATION [3]: 38.93 G/DL | MEAN CORPUSCULAR VOLUME [3]: 62.97 fL | MONOCYTE [3]: 0.67% | NEUTROPHIL [3]: 7% | NUCLEATED RED BLOOD CELLS [3]: 0 /100WBC | PLATELET COUNT [3]: 939 x10E3/uL | ALANINE AMINOTRANSFERASE [3]: 57 u/L | ALBUMIN [3]: 4.03 G/DL | ALKALINE PHOSPHATASE [3]: 444 u/L | ASPARTATE AMINOTRANSFERASE [3]: 84.67 u/L | BLOOD UREA NITROGEN [3]: 14.67 mg/dL | CARBON DIOXIDE [3]: 33 mmol/L | CHLORIDE [3]: 100 MEQ/L | CHOLESTEROL [3]: 81.67 mg/dL | CREATINE PHOSPHOKINASE [3]: 370 u/L | CREATININE [3]: 0.37 mg/dL | GLUCOSE [3]: 138.33 mg/dL | LACTATE DEHYDROGENASE [3]: 111.33 u/L | LIPASE [3]: 10.67 u/L | PHOSPHORUS [3]: 11.57 mg/dL | POTASSIUM [3]: 6.01 MEQ/L | SODIUM [3]: 145.4 MEQ/L | TOTAL BILIRUBIN [3]: 0.17 mg/dL | TOTAL PROTEIN [3]: 5.77 G/DL | URIC ACID [3]: 0.6 mg/dL
